Data set [1] has as its target T1, Cannabinoid receptor 1 (Homo sapiens, UniProt P21554). Kind of data set: Positive allosteric modulation of human CB1 receptor expressed in CHOK1 cells assessed as increase in CP55940-induced beta-arrestin recruitment at 200 nM preincubated for 30 mins followed by CP55940 addition and measured after 90 to 180 mins by PathHunter assay relative to CP55940. The data set is classed as cell-based.

In data set [2] the target is T1, Cannabinoid receptor 1. Kind of data set: Positive allosteric modulation of human CB1 receptor expressed in CHOK1 cells assessed as increase in CP55940-induced beta-arrestin recruitment preincubated for 30 mins followed by CP55940 addition and measured after 90 to 180 mins by PathHunter assay relative to CP55940. The data set is classed as cell-based.
The target in data set [3] is T1, Cannabinoid receptor 1. Kind of data set: Positive allosteric modulation of human CB1 receptor expressed in CHOK1 cells assessed as increase in CP55940-induced beta-arrestin recruitment at 500 nM preincubated for 30 mins followed by CP55940 addition and measured after 90 to 180 mins by PathHunter assay relative to CP55940. Type of data set: cell-based.
In data set [4] the target is T1, Cannabinoid receptor 1. Kind of data set: Agonist activity at human CB1 receptor expressed in CHOK1 cells assessed as induction of beta-arrestin recruitment measured after 30 mins by PathHunter assay. Type of data set: cell-based.
A short description of data set [5]: Half life in human liver microsomes at 3 uM in presence of NADPH by LC-MS/MS analysis. Type of data set: ADME, Microsome.
A short description of data set [6]: Half life in rat liver microsomes at 3 uM in presence of NADPH by LC-MS/MS analysis. The data set is classed as ADME, Microsome.
The target in data set [7] is T1, Cannabinoid receptor 1. Kind of data set: Positive allosteric modulation of human CB1 receptor expressed in CHOK1 cells assessed as increase in CP55940-induced beta-arrestin recruitment preincubated for 30 mins followed by CP55940 addition and measured after 90 to 180 mins by PathHunter assay. The data set is classed as cell-based.
For data set [8], the target named is T1, Cannabinoid receptor 1. Kind of data set: Positive allosteric modulation of human Gi/Go-coupled CB1 receptor expressed in CHOK1 cells assessed as increase in CP55940-induced inhibition of forskolin-stimulated cAMP production preincubated for 30 mins followed by CP55940 addition and measured after 30 to 60 mins by Hit-hunter assay relative to CP55940. Type of data set: functional, cell-based.

For data set [9], the target named is Cannabinoid receptor 1 (Mus musculus) (UniProt P47746). Kind of data set: Positive allosteric modulation of CB1 receptor in mouse brain membranes assessed as increase in [3H]CP55940 binding at 1 uM measured after 60 mins relative to control. The data set is classed as cell membranes.
Chain of Cannabinoid receptor 1 (Mus musculus) (P47746 whole entry): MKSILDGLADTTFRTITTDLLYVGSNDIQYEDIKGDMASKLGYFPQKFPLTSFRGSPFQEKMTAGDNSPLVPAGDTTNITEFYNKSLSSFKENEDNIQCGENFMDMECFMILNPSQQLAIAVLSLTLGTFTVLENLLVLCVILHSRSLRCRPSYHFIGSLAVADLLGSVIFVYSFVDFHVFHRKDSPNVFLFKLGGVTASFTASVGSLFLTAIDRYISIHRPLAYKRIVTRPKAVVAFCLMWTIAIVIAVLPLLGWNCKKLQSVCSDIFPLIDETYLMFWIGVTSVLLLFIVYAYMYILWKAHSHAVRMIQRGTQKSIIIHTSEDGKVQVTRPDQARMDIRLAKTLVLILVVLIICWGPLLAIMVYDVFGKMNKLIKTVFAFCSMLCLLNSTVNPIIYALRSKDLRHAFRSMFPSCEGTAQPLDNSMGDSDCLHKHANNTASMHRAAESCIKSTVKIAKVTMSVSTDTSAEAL
Data set [10] deals with T1, Cannabinoid receptor 1. Kind of data set: Positive allosteric modulation of human CB1 receptor expressed in CHOK1 cells assessed as increase in CP55940-induced beta-arrestin recruitment at 1000 nM preincubated for 30 mins followed by CP55940 addition and measured after 90 to 180 mins by PathHunter assay relative to CP55940. The data set is classed as cell-based.
The subject of data set [11] is Mus musculus. Kind of data set: Psychoactive effect in C57BL/6J mouse assessed as hypothermia by measuring change in rectal temperature at 40 mg/kg, ip measured after 30 mins. Type of data set: ADME, organism-based. As to conditions: in vivo, 0.5 h.
The test system of data set [12] is Mus musculus. Kind of data set: Psychoactive effect in C57BL/6J mouse assessed as effect on locomotor activity by measuring change in immobility time at 40 mg/kg, ip measured after 30 mins. The conditions noted are these: in vivo, 0.5 h. The data set is classed as ADME, organism-based.
The target of data set [13] is T1, Cannabinoid receptor 1. Kind of data set: Agonist activity at human Gi/Go-coupled CB1 receptor expressed in CHOK1 cells assessed as inhibition of forskolin-stimulated cAMP production measured after 30 mins by Hit-hunter assay.
In data set [14] the test system is Mus musculus. Kind of data set: Psychoactive effect in C57BL/6J mouse assessed as antinociceptive effect at 40 mg/kg, ip measured after 30 mins by warm water tail withdrawal assay. Type of data set: ADME, organism-based. As to conditions: in vivo, 0.5 h.
Data set [15] is described as follows: Half life in mouse liver microsomes at 3 uM in presence of NADPH by LC-MS/MS analysis. Type of data set: ADME, Microsome.
The subject of data set [16] is Mus musculus. Kind of data set: Psychoactive effect in C57BL/6J mouse assessed as change in immobility time at 40 mg/kg, ip measured after 30 mins by catalepsy bar test. The conditions noted are these: in vivo, 0.5 h. The data set is classed as ADME, organism-based.
The target of data set [17] is T1, Cannabinoid receptor 1.
Data set [18] concerns the target T1, Cannabinoid receptor 1. Kind of data set: Agonist activity at human Gi/Go-coupled CB1 receptor expressed in CHOK1 cells assessed as inhibition of forskolin-stimulated cAMP production measured after 30 mins by Hit-hunter assay relative to CP55940. Type of data set: cell-based. The conditions noted are these: 0.5 h.
For data set [19], the system named is Mus musculus. Kind of data set: Psychoactive effect in C57BL/6J mouse assessed as effect on locomotor activity by measuring change in distance travelled at 40 mg/kg, ip measured after 30 mins. Type of data set: ADME, organism-based. The conditions noted are these: in vivo, 0.5 h.
The subject of data set [20] is Mus musculus. Kind of data set: Antiallodynic activity in C57BL/6J mouse model of CCI-induced neuropathic pain assessed as reduction in mechanical sensitivity in contralateral paw at 40 mg/kg, ip by Von frey filament test. The data set is classed as functional, organism-based. As to conditions: TDE = time-dependent effect.
Data set [21] relates to Mus musculus. Kind of data set: Enhancement of CP55940-induced antinociceptive activity in C57BL/6J mouse assessed as increase in tail withdrawal latency at 40 mg/kg, ip pretreated for 15 mins followed by CP55940 addition and measured after 30 mins by warm water tail withdrawal assay. The data set is classed as functional, organism-based.
Data set [22] concerns Mus musculus. Kind of data set: Antiallodynic activity in C57BL/6J mouse model of CCI-induced neuropathic pain assessed as reduction in mechanical sensitivity in ipsilateral paw at 40 mg/kg, ip by Von frey filament test. Type of data set: functional, organism-based. As to conditions: TDE = time-dependent effect.
Data set [23] concerns the target T1, Cannabinoid receptor 1. Kind of data set: Positive allosteric modulation of human CB1 receptor expressed in CHOK1 cells assessed as increase in CP55940-induced beta-arrestin recruitment at 300 nM preincubated for 30 mins followed by CP55940 addition and measured after 90 to 180 mins by PathHunter assay relative to CP55940. Type of data set: cell-based.

The source made the active and inactive calls. The calls are words filed in the database; no cut-off is given here.

T1 sequence (P21554 whole entry): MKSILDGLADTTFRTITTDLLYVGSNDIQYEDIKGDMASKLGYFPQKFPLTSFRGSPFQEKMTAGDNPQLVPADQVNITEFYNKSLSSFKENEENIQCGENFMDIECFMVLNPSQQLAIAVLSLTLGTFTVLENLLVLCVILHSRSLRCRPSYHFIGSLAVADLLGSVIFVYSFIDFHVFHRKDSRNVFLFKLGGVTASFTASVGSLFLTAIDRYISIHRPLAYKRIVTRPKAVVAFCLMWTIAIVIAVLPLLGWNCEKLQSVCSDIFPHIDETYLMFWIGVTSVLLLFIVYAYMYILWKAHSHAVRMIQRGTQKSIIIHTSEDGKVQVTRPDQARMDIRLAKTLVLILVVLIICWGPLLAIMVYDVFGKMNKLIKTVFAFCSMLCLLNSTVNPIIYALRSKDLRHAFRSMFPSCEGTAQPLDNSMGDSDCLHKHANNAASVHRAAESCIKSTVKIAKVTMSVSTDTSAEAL

Turning to `COC(=O)c1ccc2c(C(CC(F)(F)F)c3cccs3)c(-c3ccccc3)[nH]c2c1` (racemic), the Activity in [1] is greater than 50%. In addition, the Emax in [2] came to 88%.

In the case of `FC(F)(F)CC(c1ccco1)c1c(-c2ccccc2)[nH]c2cc(Cl)ccc12` (racemic), the Activity in [3] was greater than 50%.

Regarding `CC(=O)c1ccc2c(C(CC(F)(F)F)c3cccs3)c(-c3ccccc3)[nH]c2c1` (racemic), in [1], the Activity was greater than 50%. Moreover, the maximal response (Emax) in [2] was 121%. Also, the EC50 turned out to be 741 nM in data set [4] and 158 nM in data set [7]. Also, the t1/2 in data set [5] is 51.2 min; in [6], 12.2 min.

`N#Cc1ccc2c(C(C[N+](=O)[O-])c3cccs3)c(-c3ccccc3)[nH]c2c1` (single isomer, unassigned; (+)) [listing 1 of 2 here]: the Emax in data set [8] stood at 102%; in data set [2] it was 51%. Further, the Activity in data set [9] is 99%; in [10], greater than 50%.

Turning to `Cc1ccc2c(C(C[N+](=O)[O-])c3cccs3)c(-c3ccccc3)[nH]c2c1` (racemic), the Activity result in [11] is “Non-Toxic”; in [12], “Non-Toxic”; in [14], “Non-Toxic”; in data set [16], “Non-Toxic”; in data set [9] it was 127%; in data set [3] it was greater than 50%. Also, the Activity entry in [19] is reported as “Non-Toxic”. Moreover, the figures for the Emax in data set [8], in [2] and in data set [18] (read-out: Emax) were 98%, 106% and 94%, respectively. The EC50 in [13] was found to be 32 nM; in data set [4], 777 nM; in data set [17], 18 nM; in data set [7], 283 nM. Further, the values for the t1/2 in data set [5], in [15] and in data set [6] were 41.2 min, 10.4 min and 6.4 min, respectively.

`N#Cc1ccc2c(C(C[N+](=O)[O-])c3cccs3)c(-c3ccccc3)[nH]c2c1` (single isomer, unassigned; (-)) [listing 1 of 2 here]: the 50% effective concentration (EC50) was 46 nM in data set [13], greater than 10000 nM in data set [4], 36 nM in data set [17] and 664 nM in data set [7]. Moreover, the Emax in data set [18] amounted to 97%.

`FC(F)(F)CC(c1cccs1)c1c(-c2ccccc2)[nH]c2cc(Cl)ccc12` (racemic): in [1], the Activity was greater than 50%.

Turning to `N#Cc1ccc2c(C(C[N+](=O)[O-])c3cccs3)c(-c3ccccc3)[nH]c2c1` (single isomer, unassigned; (-)) [listing 2 of 2 here], the Emax worked out at 99% in data set [8] and 117% in data set [2]. Further, the Activity in data set [9] was 108%; in [10] it was greater than 50%.

`N#Cc1ccc2c(C(CC(F)(F)F)c3cccs3)c(-c3ccccc3)[nH]c2c1` (racemic): the Activity entry in data set [11] was “Non-Toxic”; in [12] it was “Non-Toxic”; in [20] it was “Tde”; in data set [14], “Non-Toxic”; in data set [22], “Tde”; in [16], “Non-Toxic”. Further, in data set [19], the Activity result was “Non-Toxic”. Further, the result in data set [21] was Active. The 50% effective concentration (EC50) in data set [4] is 647 nM; in data set [7] it was 177 nM.

In the case of `FC(F)(F)CC(c1cccs1)c1c(-c2ccccc2)[nH]c2cc(C(F)(F)F)ccc12` (racemic), in data set [2], the Emax was determined as 203%. Besides, the results for the concentration giving a half-maximal response (EC50) in data set [4] and in [7] were 801 nM and 322 nM, respectively. Besides, the t1/2 was 49.7 min in [5] and 36.7 min in data set [6]. Besides, in [3], the Activity was greater than 50%.

Regarding `O=[N+]([O-])CC(c1cccs1)c1c(-c2ccccc2)[nH]c2cc(Cl)ccc12` (racemic), the half-maximal effective concentration (EC50) in data set [4] was determined as 1530 nM; in data set [7] it was 462 nM. The figures for the t1/2 in data set [5] and in data set [6] were 32.7 min and 13.8 min, respectively. Moreover, the Activity in [3] is greater than 50%.

`Cc1ccc2c(C(CC(F)(F)F)c3cccs3)c(-c3ccccc3)[nH]c2c1` (racemic): the Activity in data set [3] was greater than 50%.

As for `COC(=O)c1ccc2c(C(CC(F)(F)F)c3cccs3)c(-c3ccccc3)[nH]c2c1` (single isomer, unassigned; (+)), the Activity in data set [1] is greater than 50%. In addition, in data set [2], the Emax was 156%.

Turning to `N#Cc1ccc2c([C@H](CC(F)(F)F)c3cccs3)c(-c3ccccc3)[nH]c2c1`, the EC50 in data set [13] is 76 nM; in data set [4], 1210 nM; in [17] it was 40 nM; in data set [7] it was 342 nM. For the same compound, the Emax in [18] (read-out: Emax) came to 89%.

Regarding `Cc1ccc2c(C(C(=O)C(F)(F)F)c3ccccc3)c(-c3ccccc3)[nH]c2c1` (racemic), the Activity in data set [23] is 50 to 100%; in [3], greater than 50%.

`COC(=O)c1ccc2c(C(CC(F)(F)F)c3cccs3)c(-c3ccccc3)[nH]c2c1` (single isomer, unassigned; (-)): in data set [1], the Activity was greater than 50%.

With `N#Cc1ccc2c(C(C[N+](=O)[O-])c3cccs3)c(-c3ccccc3)[nH]c2c1` (single isomer, unassigned; (+)) [listing 2 of 2 here], the 50% effective concentration (EC50) in [13] was 251 nM; in [4], greater than 10000 nM; in data set [17], 181 nM; in data set [7], 863 nM. In addition, in data set [18] (read-out: Emax), the maximal response (Emax) is 96%.

Regarding `FC(F)(F)CC(c1cccs1)c1c(C2CCCC2)[nH]c2cc(C(F)(F)F)ccc12` (racemic), the maximal response (Emax) in data set [2] is 162%. Also, the EC50 in data set [4] was 755 nM; in data set [7], 301 nM. In addition, the t1/2 is 47.1 min in data set [5] and 44.4 min in [6]. The Activity in [3] was greater than 50%.

For the compound `N#Cc1ccc2c([C@@H](CC(F)(F)F)c3cccs3)c(-c3ccccc3)[nH]c2c1`, the EC50 in [13] was 29 nM; in [4], 828 nM; in data set [17], 17 nM; in data set [7], 363 nM. The t1/2 worked out at 72.3 min in [5], 26.5 min in [15] and 34.9 min in [6]. In [18] (read-out: Emax), the maximum response (Emax) was determined as 84%.

On to `FC(F)(F)CC(c1ccccc1)c1c(-c2ccccc2)[nH]c2cc(C(F)(F)F)ccc12` (racemic), for which, in data set [1], the Activity was greater than 50%.

Regarding `Cc1ccc2c(C(CC(F)(F)F)c3ccccc3)c(-c3ccccc3)[nH]c2c1` (racemic), the Activity in data set [23] was 50 to 100%; in [3], greater than 50%.

For the origin of these results see ChEMBL document CHEMBL4350967, “The Trifluoromethyl Group as a Bioisosteric Replacement of the Aliphatic Nitro Group in CB1 Receptor Positive Allosteric Modulators” (J Med Chem, 2019).
